Literature values, collected in patent US7364877B2, “Polynucleotides encoding disorazole polyketide synthase polypeptides” (Kosan Biosciences, Inc., priority 2002, dated 2008).

Key:
mammalian cell = conditions: mammalian cells
[1] = system: filamentous fungi belonging to the Ascomycetes, Basidiomycetes, Zygomycetes, Oomycetes, and Deuteromycetes families; conditions: including filamentous fungi

## C/C=C/[C@H](O)C(C)(C)[C@@H]1C\C=C/C=C\C=C\[C@H](OC)Cc2nc(co2)C(=O)O[C@H](C(C)(C)[C@@H](O)/C=C/C)C/C=C\[C@H]2O[C@H]2/C=C/C=C\c2nc(co2)C(=O)O1 [Disorazole A, disorazole A]
Mammalian cell
  mammalian cell cytotoxic activity (MIC): 0.003 to 0.03 ng/mL
[1]
  activity against different fungi (MIC): 100 to 1000 ng/mL
yeast
  activity against yeast: not highly active
bacteria
  activity against bacteria: not highly active
